Reference: patent publication US20230092890A1, “1, 3, 4-Oxadiazole derivative compounds as histone deacetylase 6 inhibitor, and the pharmaceutical composition comprising the same” (Chong Kun Dang Pharmaceutical Corp., priority 2019, published 2023)
pIC50: −log10 of the molar value.

Tests used:
HDAC6 human recombinant = target: T1, HDAC6 human recombinant (Homo sapiens, UniProt Q9UBN7); assay: HDAC enzyme activity inhibition (in vitro), HDAC6 assay; format: biochemical; conditions: samples at 0.1, 1, 10, 100 and 1000 nM; 37° C. 60 minutes; fluorescence Ex 390, Em 460; read-out: HDAC6 IC50
T1 construct: purchased Calbiochem 382180
T1 sequence (Q9UBN7 1-1215): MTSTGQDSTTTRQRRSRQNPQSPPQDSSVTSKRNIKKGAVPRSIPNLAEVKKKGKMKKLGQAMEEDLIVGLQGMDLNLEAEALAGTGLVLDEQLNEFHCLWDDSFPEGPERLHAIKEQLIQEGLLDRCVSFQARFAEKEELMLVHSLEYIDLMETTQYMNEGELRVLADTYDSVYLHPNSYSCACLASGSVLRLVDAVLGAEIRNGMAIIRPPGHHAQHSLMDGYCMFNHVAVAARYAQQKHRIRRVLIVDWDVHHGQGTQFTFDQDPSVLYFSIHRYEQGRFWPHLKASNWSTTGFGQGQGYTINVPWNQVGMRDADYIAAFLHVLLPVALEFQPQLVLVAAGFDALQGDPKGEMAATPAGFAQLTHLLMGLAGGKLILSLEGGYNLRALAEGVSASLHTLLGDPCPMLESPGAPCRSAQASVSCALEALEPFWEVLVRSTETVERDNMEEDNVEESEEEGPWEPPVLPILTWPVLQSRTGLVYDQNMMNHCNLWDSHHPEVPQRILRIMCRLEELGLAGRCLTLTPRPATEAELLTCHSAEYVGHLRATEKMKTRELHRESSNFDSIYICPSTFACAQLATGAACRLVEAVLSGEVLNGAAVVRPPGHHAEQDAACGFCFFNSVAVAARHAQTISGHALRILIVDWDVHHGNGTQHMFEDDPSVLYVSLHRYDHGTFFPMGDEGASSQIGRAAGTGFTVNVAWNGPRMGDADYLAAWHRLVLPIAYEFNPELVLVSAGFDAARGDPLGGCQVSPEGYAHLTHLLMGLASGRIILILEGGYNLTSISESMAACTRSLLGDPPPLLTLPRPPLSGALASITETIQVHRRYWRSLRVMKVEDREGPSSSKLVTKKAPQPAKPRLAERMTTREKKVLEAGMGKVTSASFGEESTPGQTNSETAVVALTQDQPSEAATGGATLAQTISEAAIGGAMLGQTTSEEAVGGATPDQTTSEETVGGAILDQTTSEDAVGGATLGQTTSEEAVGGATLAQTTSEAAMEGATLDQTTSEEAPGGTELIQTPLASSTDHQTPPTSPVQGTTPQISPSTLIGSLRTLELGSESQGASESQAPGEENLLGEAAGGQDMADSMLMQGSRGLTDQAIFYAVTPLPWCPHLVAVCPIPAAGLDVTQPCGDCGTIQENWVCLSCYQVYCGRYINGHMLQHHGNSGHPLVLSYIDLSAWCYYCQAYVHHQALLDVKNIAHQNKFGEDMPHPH
Method in brief: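 Fluorescence (Ex 390, Em 460) read after a 37° C, 60 min enzyme reaction and a further 30 min developer step at 37° C. Uses recombinant human HDAC6; HDAC1 arm dosed at 100, 1000, 10000 nM.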

HDAC1 = target: T2, HDAC1 (Homo sapiens, UniProt Q13547); assay: HDAC enzyme activity inhibition (in vitro), HDAC1 Fluorimetric Drug Discovery Assay Kit; format: biochemical; conditions: samples at 100, 1000 and 10000 nM; 37° C. 60 minutes; fluorescence Ex 390, Em 460; read-out: HDAC1 IC50
T2 construct: purchased Enzolifesciences BML-AK511
Method in brief: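 Each sample reacted with enzyme for 60 min at 37° C before a 30-min developer step at the same temperature. HDAC1 doses spanned 100 to 10000 nM. Fluorescent signal was read at Ex 390/Em 460.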

T2 sequence (Q13547 whole entry): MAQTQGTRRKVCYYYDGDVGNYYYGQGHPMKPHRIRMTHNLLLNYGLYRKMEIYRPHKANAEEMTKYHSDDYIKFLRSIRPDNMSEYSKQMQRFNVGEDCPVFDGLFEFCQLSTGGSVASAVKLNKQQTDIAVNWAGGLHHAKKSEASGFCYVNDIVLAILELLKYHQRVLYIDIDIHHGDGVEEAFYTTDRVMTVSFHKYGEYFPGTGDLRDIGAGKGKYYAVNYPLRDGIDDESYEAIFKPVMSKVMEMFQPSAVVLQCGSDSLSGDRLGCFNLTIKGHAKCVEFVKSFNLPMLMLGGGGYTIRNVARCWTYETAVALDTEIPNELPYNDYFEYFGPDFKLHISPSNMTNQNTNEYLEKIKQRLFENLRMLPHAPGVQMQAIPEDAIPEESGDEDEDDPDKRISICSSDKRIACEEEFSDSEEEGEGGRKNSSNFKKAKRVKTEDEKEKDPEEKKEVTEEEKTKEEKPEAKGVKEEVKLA

| SMILES | pIC50 (HDAC6 human recombinant) | pIC50 (HDAC1) |
| --- | --- | --- |
| CN1CCC(n2c(=O)n(Cc3ccc(-c4nnc(C(F)F)o4)cn3)c3cc(F)c(-c4ccc5c(ccn5C)c4)cc32)CC1 [Compound 250, 1-((5-(5-(difluoromethyl)-1,3,4-oxadiazole-2-yl)pyridine-2-yl)methyl)-6-fluoro-5-(1-methyl-1H-indole-5-yl)-3-(1-methylpiperidine-4-yl)-1,3-dihydro-2H-benzo[d]imidazole-2-one] | 7.74 | < 5.00 |
| CN1CCC(n2c(=O)n(Cc3ccc(-c4nnc(C(F)F)o4)cn3)c3cc(F)c(-c4ccc5c(ccn5C(=O)OC(C)(C)C)c4)cc32)CC1 [Compound 251, tert-butyl 5-(1-((5-(5-(difluoromethyl)-1,3,4-oxadiazole-2-yl)pyridine-2-yl)methyl)-6-fluoro-3-(1-methylpiperidine-4-yl)-2-oxo-2,3-dihydro-1H-benzo[d]imidazole-5-yl)-1H-indole-1-carboxylate] | 6.43 | < 5.00 |
| Cc1cc2cc(-c3cc4c(cc3F)n(Cc3ccc(-c5nnc(C(F)F)o5)cn3)c(=O)n4C3CCN(C)CC3)ccc2n1C(=O)OC(C)(C)C [Compound 252, tert-butyl 5-(1-((5-(5-(difluoromethyl)-1,3,4-oxadiazole-2-yl)pyridine-2-yl)methyl)-6-fluoro-3-(1-methylpiperidine-4-yl)-2-oxo-2,3-dihydro-1H-benzo[d]imidazole-5-yl)-2-methyl-1H-indole-1-carboxylate] | 6.68 | < 5.00 |
| CN1CCC(n2c(=O)n(Cc3ccc(-c4nnc(C(F)F)o4)cn3)c3cc(F)c(-c4cc5ccccc5n4C(=O)OC(C)(C)C)cc32)CC1 [Compound 253, tert-butyl 2-(1-((5-(5-(difluoromethyl)-1,3,4-oxadiazole-2-yl)pyridine-2-yl)methyl)-6-fluoro-3-(1-methylpiperidine-4-yl)-2-oxo-2,3-dihydro-1H-benzo[d]imidazole-5-yl)-1H-indole-1-carboxylate] | 6.57 | < 5.00 |
| CN1CCC(n2c(=O)n(Cc3ccc(-c4nnc(C(F)F)o4)cn3)c3cc(F)c(-c4cn(C(=O)OC(C)(C)C)c5ccc(Cl)cc45)cc32)CC1 [Compound 254] | 6.33 | < 5.00 |
| CN1CCC(n2c(=O)n(Cc3ccc(-c4nnc(C(F)F)o4)cn3)c3cc(F)c(-c4ccc5c(cnn5C(=O)OC(C)(C)C)c4)cc32)CC1 [Compound 255, tert-butyl 5-(1-((5-(5-(difluoromethyl)-1,3,4-oxadiazole-2-yl)pyridine-2-yl)methyl)-6-fluoro-3-(1-methylpiperidine-4-yl)-2-oxo-2,3-dihydro-1H-benzo[d]imidazole-5-yl)-1H-indazole-1-carboxylate] | 7.32 | < 5.00 |
| CN1CCC(n2c(=O)n(Cc3ccc(-c4nnc(C(F)F)o4)cn3)c3cc(F)c(-c4ccc5[nH]ncc5c4)cc32)CC1 [Compound 256, 1-((5-(5-(difluoromethyl)-1,3,4-oxadiazole-2-yl)pyridine-2-yl)methyl)-6-fluoro-5-(1H-indazole-5-yl)-3-(1-methylpiperidine-4-yl)-1,3-dihydro-2H-benzo[d]imidazole-2-one] | 8.10 | < 5.00 |
| CN1CC(n2c(=O)n(Cc3ccc(-c4nnc(C(F)F)o4)cn3)c3cc(F)c(-c4cccc5[nH]ccc45)cc32)C1 [Compound 257, 1-((5-(5-(difluoromethyl)-1,3,4-oxadiazole-2-yl)pyridine-2-yl)methyl)-6-fluoro-5-(1H-indole-4-yl)-3-(1-methylazetidine-3-yl)-1,3-dihydro-2H-benzo[d]imidazole-2-one] | 7.92 | < 5.00 |
| CN1CC(n2c(=O)n(Cc3ccc(-c4nnc(C(F)F)o4)cn3)c3cc(F)c(-c4cccnc4)cc32)C1 [Compound 258, 1-((5-(5-(difluoromethyl)-1,3,4-oxadiazole-2-yl)pyridine-2-yl)methyl)-6-fluoro-3-(1-methylazetidine-3-yl)-5-(pyridine-3-yl)-1,3-dihydro-2H-benzo[d]imidazole-2-one] | 7.89 | < 5.00 |
| CN1CC(n2c(=O)n(Cc3ccc(-c4nnc(C(F)F)o4)cn3)c3cc(F)c(-c4ccncc4)cc32)C1 [Compound 259, 1-((5-(5-(difluoromethyl)-1,3,4-oxadiazole-2-yl)pyridine-2-yl)methyl)-6-fluoro-3-(1-methylazetidine-3-yl)-5-(pyridine-4-yl)-1,3-dihydro-2H-benzo[d]imidazole-2-one] | 7.85 | < 5.00 |
| CC(C)N1CCN(c2cc3c(cc2F)n(Cc2ccc(-c4nnc(C(F)F)o4)cn2)c(=O)n3C)CC1 [Compound 261, 1-((5-(5-(difluoromethyl)-1,3,4-oxadiazole-2-yl)pyridine-2-yl)methyl)-6-fluoro-5-(4-isopropylpiperazine-1-yl)-3-methyl-1,3-dihydro-2H-benzo[d]imidazole-2-one] | 7.24 | < 5.00 |
| Cn1c(=O)n(Cc2ccc(-c3nnc(C(F)F)o3)cn2)c2cc(F)c(N3CCN(CC(F)(F)C(F)F)CC3)cc21 [Compound 262, 1-((5-(5-(difluoromethyl)-1,3,4-oxadiazole-2-yl)pyridine-2-yl)methyl)-6-fluoro-3-methy 1-5-(4-(2,2,3,3-tetrafluoropropyl)piperazine-1-yl)-1,3-dihydro-2H-benzo[d]imidazole-2-one] | 6.97 | < 5.00 |
| Cn1c(=O)n(Cc2ccc(-c3nnc(C(F)F)o3)cn2)c2cc(F)c(N3CCN(CC(F)(F)F)CC3)cc21 [Compound 263, 1-((5-(5-(difluoromethyl)-1,3,4-oxadiazole-2-yl)pyridine-2-yl)methyl)-6-fluoro-3-methy 1-5-(4-(2,2,2-trifluoroethyl)piperazine-1-yl)-1,3-dihydro-2H-benzo[d]imidazole-2-one] | 7.23 | < 5.00 |
| Cn1c(=O)n(Cc2ccc(-c3nnc(C(F)F)o3)cn2)c2cc(F)c(N3CCN(C4COC4)CC3)cc21 [Compound 264, 1-((5-(5-(difluoromethyl)-1,3,4-oxadiazole-2-yl)pyridine-2-yl)methyl)-6-fluoro-3-methy 1-5-(4-(oxetan-3-yl)piperazine-1-yl)-1,3-dihydro-2H-benzo[d]imidazole-2-one] | 7.21 | < 5.00 |
| O=c1oc2cc(Cl)ccc2n1Cc1ccc(-c2nnc(C(F)F)o2)cn1 [Compound 265, 6-chloro-3-((5-(5-(difluoromethyl)-1,3,4-oxadiazole-2-yl)pyridine-2-yl)methyl)benzo[d]oxazole-2(3H)-one] | 7.34 | < 5.00 |
| Cn1c(=O)n(Cc2ccc(-c3nnc(C(F)F)o3)cn2)c2cc(F)c(N3CCN(C(=O)CO)CC3)cc21 [Compound 266, 1-((5-(5-(difluoromethyl)-1,3,4-oxadiazole-2-yl)pyridine-2-yl)methyl)-6-fluoro-5-(4-(2-hydroxyacetyl)piperazine-1-yl)-3-methyl-1,3-dihydro-2H-benzo[d]imidazole-2-one] | 7.41 | < 5.00 |
| O=c1n(CCN2CCOCC2)c2cc(-c3cccnc3)c(F)cc2n1Cc1ccc(-c2nnc(C(F)F)o2)cn1 [Compound 267, 1-((5-(5-(difluoromethyl)-1,3,4-oxadiazole-2-yl)pyridine-2-yl)methyl)-6-fluoro-3-(2-morpholinoethyl)-5-(pyridine-3-yl)-1,3-dihydro-2H-benzo[d]imidazole-2-one] | 7.38 | < 5.00 |
| CN1CC[C@H](n2c(=O)n(Cc3ccc(-c4nnc(C(F)F)o4)cn3)c3cc(F)c(-c4cccnc4)cc32)C1 [Compound 268, (S)-1-((5-(5-(difluoromethyl)-1,3,4-oxadiazole-2-yl)pyridine-2-yl)methyl)-6-fluoro-3-(1-methylpyrrolidine-3-yl)-5-(pyridine-3-yl)-1,3-dihydro-2H-benzo[d]imidazole-2-one] | 7.70 | < 5.00 |
